Measured values published in patent publication US20130150377A1, “Tetrahydropyridinyl and Dihydropyrrolyl Compounds and the Use Thereof” (SHIONOGI & CO., LTD., priority 2008, published 2013).

Target: T1, N-type calcium channel (NTCC) (Homo sapiens, UniProt Q00975)
T1 construct: endogenous in cells; host or cells: differentiated IMR32 cells (ATCC)
Test: FLIPR calcium mobilization assay for N-type calcium channel (differentiated IMR32 cells)
Format: cell-based
Settings: N-type calcium channel blockers, calcium mobilization in vitro assay
Protocol: Cell maintenance and differentiation. Unless noted otherwise, cell culture reagents were purchased from Mediatech of Herndon, Md. IMR32 cells (American Type Culture Collection, ATCC, Manassas, Va.) were routinely cultured in growth medium consisting of minimum essential medium containing 10% fetal bovine serum (FBS, Hyclone, Logan, Utah), 100 U/mL penicillin, 100 μg/mL streptomycin, 2 mM L-glutamine, 1 mM sodium pyruvate, and 1×MEM non-essential amino acids. 80-90% confluent flasks of cells were differentiated using the following differentiation medium: Growth medium plus 1 mM dibutyryl cyclic AMP (Sigma, St. Louis, Mo.), and 2.5 μM bromodeoxyuridine (Sigma). Cells were differentiated for 8 days by replacing differentiation medium every 2-3 days.
FLIPR Calcium Mobilization Assay for N-type Calcium Channel.
One day prior to performing this assay, differentiated IMR32 cells were treated with 1× CellStripper, and seeded on poly-D-lysine-coated 96-well clear-bottom black plates (Becton Dickinson, Franklin Lakes, N.J.) at 200,000 cells/well. On the day of the assay, the cell plates were washed with IMR32 buffer (127 mM NaCl, 1 mM KCl, 2 mM MgCl2, 700 μM NaH2PO4, 5 mM CaCl2, 5 mM NaHCO3, 8 mM HEPES, 10 mM glucose, pH 7.4), then pre-stimulated with KCl and loaded as follows: […] of IMR32 buffer, 0.05 mL of each compound tested diluted in IMR32 buffer containing 20 μM nitrendipine (Sigma), and 0.1 mL KCl dissolved in IMR32 buffer, plus Fluo-4 were added (3 μM final concentration, Molecular Probes, Eugene, Oreg.). Final test compound concentrations ranged from about 846 pM to about 17 μM, final nitrendipine concentration was 5 μM, and final KCl concentration was 90 mM. After 1 hour, the cells were washed twice with 0.05 mL of each compound tested in nitrendipine-containing IMR32 buffer (no KCl or Fluo-4), and then replaced with 0.1 mL of each compound tested in nitrendipine-containing IMR32 buffer. Plates were then transferred to a Fluorimetric Imaging Plate Reader (FLIPR^96, Molecular Devices, Inc., Sunnyvale, Calif.) for assay. The FLIPR measured basal Fluo-4 fluorescence for 315 seconds (i.e., 5 minutes and 15 seconds), then added 0.1 mL KCl agonist dissolved in IMR32 buffer and measured fluorescence for another 45 seconds. Final test compound concentrations on the cells after FLIPR read ranged from about 846 pM to about 17 μM, final nitrendipine concentration was 5 μM, and final KCl concentration was 90 mM. Data were collected over the entire time course and analyzed using Excel, Graph Pad Prism (version 3.02, Graph Pad, San Diego, Calif.), or an in-house non-linear regression analysis software.

T1 sequence (Q00975 whole entry): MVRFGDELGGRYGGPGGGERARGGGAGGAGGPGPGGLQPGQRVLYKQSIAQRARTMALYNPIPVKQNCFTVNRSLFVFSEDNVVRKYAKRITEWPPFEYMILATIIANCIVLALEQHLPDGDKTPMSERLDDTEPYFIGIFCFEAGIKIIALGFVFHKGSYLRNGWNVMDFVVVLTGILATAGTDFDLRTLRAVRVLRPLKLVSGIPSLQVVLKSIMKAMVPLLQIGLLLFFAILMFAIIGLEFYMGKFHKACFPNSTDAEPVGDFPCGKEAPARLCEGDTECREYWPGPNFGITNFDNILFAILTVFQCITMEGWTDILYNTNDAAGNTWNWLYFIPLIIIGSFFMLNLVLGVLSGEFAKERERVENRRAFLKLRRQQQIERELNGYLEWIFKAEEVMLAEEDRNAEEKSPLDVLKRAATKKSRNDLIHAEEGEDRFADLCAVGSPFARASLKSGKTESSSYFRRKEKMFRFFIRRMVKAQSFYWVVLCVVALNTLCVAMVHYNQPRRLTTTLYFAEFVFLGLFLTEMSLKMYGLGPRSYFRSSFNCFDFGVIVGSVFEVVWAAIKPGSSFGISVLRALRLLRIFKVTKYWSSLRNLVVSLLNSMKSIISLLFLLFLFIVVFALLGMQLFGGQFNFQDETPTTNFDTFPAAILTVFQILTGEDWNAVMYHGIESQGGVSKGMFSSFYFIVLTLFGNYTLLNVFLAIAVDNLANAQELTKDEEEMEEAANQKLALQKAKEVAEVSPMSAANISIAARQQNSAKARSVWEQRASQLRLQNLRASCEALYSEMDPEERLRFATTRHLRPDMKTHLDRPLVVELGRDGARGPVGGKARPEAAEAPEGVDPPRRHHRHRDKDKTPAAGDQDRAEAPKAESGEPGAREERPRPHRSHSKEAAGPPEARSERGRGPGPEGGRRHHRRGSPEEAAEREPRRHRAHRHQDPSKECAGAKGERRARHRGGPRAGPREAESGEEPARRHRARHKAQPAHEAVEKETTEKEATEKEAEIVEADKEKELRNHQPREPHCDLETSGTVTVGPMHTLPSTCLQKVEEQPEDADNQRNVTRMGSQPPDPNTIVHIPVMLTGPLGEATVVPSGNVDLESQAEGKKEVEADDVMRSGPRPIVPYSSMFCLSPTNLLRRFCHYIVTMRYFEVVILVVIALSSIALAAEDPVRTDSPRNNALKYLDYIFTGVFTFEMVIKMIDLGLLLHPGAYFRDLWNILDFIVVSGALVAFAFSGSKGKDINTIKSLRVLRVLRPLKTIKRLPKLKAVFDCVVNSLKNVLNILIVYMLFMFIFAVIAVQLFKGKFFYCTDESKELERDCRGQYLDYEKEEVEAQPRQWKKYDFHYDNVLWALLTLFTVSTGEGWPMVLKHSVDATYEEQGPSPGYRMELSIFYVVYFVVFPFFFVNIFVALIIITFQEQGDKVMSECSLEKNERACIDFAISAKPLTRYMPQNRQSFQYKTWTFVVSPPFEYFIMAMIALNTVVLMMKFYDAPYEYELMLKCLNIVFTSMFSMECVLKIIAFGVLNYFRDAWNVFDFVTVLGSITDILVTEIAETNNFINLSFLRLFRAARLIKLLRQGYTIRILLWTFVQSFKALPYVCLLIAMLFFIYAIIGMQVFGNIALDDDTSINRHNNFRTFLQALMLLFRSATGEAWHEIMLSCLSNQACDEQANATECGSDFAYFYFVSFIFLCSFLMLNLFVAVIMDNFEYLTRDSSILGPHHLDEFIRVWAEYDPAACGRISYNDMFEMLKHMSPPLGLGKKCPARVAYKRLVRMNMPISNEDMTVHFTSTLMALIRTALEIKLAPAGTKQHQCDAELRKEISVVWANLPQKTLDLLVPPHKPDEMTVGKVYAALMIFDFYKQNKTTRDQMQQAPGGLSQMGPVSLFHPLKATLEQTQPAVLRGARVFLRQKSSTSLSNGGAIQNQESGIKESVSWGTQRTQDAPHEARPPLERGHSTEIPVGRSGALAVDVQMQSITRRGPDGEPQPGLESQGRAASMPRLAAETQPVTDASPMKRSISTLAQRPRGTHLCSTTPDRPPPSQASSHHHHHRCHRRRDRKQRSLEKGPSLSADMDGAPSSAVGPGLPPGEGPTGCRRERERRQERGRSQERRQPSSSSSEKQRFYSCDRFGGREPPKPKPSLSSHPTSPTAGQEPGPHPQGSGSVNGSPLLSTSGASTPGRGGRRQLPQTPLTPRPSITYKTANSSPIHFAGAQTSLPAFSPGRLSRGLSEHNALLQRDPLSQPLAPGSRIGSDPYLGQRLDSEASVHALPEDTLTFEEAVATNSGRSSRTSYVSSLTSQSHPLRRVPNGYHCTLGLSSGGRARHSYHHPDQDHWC
T1 sequence (P54289 25-956 partner limits assumed): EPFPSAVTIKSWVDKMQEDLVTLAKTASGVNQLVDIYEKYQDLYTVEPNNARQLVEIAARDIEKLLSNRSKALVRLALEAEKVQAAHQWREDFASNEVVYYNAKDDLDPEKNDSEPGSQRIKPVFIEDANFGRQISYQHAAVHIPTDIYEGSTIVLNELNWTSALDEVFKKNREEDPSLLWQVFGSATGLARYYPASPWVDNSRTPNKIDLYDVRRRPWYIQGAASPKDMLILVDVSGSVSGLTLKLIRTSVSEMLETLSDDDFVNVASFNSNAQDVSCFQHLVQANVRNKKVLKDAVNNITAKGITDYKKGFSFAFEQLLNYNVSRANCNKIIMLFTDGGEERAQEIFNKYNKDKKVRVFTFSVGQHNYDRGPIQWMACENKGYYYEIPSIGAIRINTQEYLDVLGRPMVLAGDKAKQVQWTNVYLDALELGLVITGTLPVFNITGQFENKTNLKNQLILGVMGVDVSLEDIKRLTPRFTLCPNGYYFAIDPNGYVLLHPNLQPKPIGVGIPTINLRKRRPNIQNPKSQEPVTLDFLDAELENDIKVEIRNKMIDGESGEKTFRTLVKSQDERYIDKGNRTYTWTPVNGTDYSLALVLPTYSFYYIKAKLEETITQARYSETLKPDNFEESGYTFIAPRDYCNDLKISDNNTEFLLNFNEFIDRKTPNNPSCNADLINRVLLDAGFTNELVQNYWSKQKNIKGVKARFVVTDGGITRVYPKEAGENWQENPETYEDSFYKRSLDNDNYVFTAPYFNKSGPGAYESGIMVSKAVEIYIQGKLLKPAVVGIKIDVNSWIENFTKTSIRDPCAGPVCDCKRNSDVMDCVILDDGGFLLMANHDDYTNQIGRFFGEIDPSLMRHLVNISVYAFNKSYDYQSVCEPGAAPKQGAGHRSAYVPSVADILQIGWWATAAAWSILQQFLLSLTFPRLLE
T1 sequence (P54289 957-1103 partner limits assumed): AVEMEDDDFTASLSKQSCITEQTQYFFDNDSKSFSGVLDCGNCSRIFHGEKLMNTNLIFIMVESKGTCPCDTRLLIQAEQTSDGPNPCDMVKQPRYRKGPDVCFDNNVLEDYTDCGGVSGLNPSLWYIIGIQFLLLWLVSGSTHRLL
T1 sequence (P54284 whole entry partner): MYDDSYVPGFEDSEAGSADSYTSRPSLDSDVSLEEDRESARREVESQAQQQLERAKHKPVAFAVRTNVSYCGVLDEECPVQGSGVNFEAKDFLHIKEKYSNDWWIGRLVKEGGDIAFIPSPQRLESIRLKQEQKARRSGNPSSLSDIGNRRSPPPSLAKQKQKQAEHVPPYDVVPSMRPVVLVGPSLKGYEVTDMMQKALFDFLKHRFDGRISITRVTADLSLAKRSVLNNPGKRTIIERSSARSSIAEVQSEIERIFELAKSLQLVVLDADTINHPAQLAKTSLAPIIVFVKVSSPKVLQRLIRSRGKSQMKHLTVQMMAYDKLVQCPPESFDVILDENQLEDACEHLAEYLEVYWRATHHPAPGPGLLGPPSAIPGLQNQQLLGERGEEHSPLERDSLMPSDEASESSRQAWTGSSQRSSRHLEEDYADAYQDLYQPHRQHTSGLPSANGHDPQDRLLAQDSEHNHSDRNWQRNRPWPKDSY

IC50 [nM] | Compound
9920 | O=C(NC1CC1)c1cccc(C2=CCN(S(=O)(=O)c3ccccn3)CC2)n1 [1′-(Pyridin-2-ylsulfonyl)-1′,2′,3′,6′-tetrahydro-[2,4′]bipyridinyl-6-carboxylic acid cyclopropylamide]
6180 | O=C(NC1CC1)c1cccc(C2=CCN(S(=O)(=O)c3cccnc3)CC2)n1 [1′-(Pyridin-3-ylsulfonyl)-1′,2′,3′,6′-tetrahydro-[2,4′]bipyridinyl-6-carboxylic acid cyclopropylamide]
1050 | O=C(NC1CC1)c1cccc(C2=CCN(S(=O)(=O)c3ccsc3)CC2)n1 [1′-(Thiophen-3-ylsulfonyl)-1′,2′,3′,6′-tetrahydro-[2,4′]bipyridinyl-6-carboxylic acid cyclopropylamide]
320 | O=C(NC1CC1)c1cccc(C2=CCN(S(=O)(=O)C3CCCCC3)CC2)n1 [1′-Cyclohexylsulfonyl-1′,2′,3′,6′-tetrahydro-[2,4′]bipyridinyl-6-carboxylic acid cyclopropylamide]
2700 | O=C(NC1CC1)c1cccc(C2=CCN(S(=O)(=O)C3CCCC3)CC2)n1 [1′-Cyclopentylsulfonyl-1′,2′,3′,6′-tetrahydro-[2,4′]bipyridinyl-6-carboxylic acid cyclopropylamide]
> 20000 | CN(C)S(=O)(=O)N1CC=C(c2cccc(C(=O)NC3CC3)n2)CC1 [1′-Dimethylsulfamoyl-1′,2′,3′,6′-tetrahydro-[2,4′]bipyridinyl-6-carboxylic acid cyclopropylamide]
360 | NC(=O)c1ccnc(C2=CCN(S(=O)(=O)c3cccc(C(F)(F)F)c3)CC2)n1 [2-[1-(3-Trifluoromethylbenzenesulfonyl)-1,2,3,6-tetrahydropyridin-4-yl]-pyrimidine-4-carboxylic acid amide]
130 | O=C(NCC1CC1)c1ccnc(C2=CCN(S(=O)(=O)c3cccc(C(F)(F)F)c3)CC2)n1 [2-[1-(3-Trifluoromethylbenzenesulfonyl)-1,2,3,6-tetrahydropyridin-4-yl]pyrimidine-4-carboxylic acid cyclopropylmethylamide]
240 | O=C(NC1CC1)c1ccnc(C2=CCN(S(=O)(=O)c3ccc(OC(F)(F)F)cc3)CC2)n1 [2-[1-(4-Trifluoromethoxybenzenesulfonyl)-1,2,3,6-tetrahydropyridin-4-yl]pyrimidine-4-carboxylic acid cyclopropylamide]
490 | O=C(NC1CC1)c1nc(C2=CCN(S(=O)(=O)c3ccc(OC(F)(F)F)cc3)CC2)ccc1Cl [5-Chloro-1′-(4-trifluoromethoxybenzenesulfonyl)-1′,2′,3′,6′-tetrahydro-[2,4′]bipyridinyl-6-carboxylic acid cyclopropylamide]
30 | O=C(NC1CC1)c1cccc(C2=CCN(S(=O)(=O)c3cccc(C(F)(F)F)c3)CC2)n1 [Compound 7, 1′-(3-Trifluoromethylbenzenesulfonyl)-1′,2′,3′,6′-tetrahydro-[2,4′]bipyridinyl-6-carboxylic acid cyclopropylamide]
> 20000 | NC(=O)c1ccnc(C2=CCN(S(=O)(=O)c3ccc(OC(F)(F)F)cc3)CC2)n1 [Compound 15, 2-[1-(4-Trifluoromethoxybenzenesulfonyl)-1,2,3,6-tetrahydropyridin-4-yl]-pyrimidine-4-carboxylic acid amide]
920 | COC(=O)c1cccc(C2=CCN(S(=O)(=O)c3cccc(C(F)(F)F)c3)CC2)n1 [Compound 25, 1′-(3-Trifluoromethylbenzenesulfonyl)-1′,2′,3′,6′-tetrahydro-[2,4′]bipyridinyl-6-carboxylic acid methyl ester]
> 20000 | O=C(O)c1cccc(C2=CCN(S(=O)(=O)c3cccc(C(F)(F)F)c3)CC2)n1 [Compound 26, 1′-(3-Trifluoromethylbenzenesulfonyl)-1′,2′,3′,6′-tetrahydro-[2,4′]bipyridinyl-6-carboxylic acid]
